Values of other authors in patent publication US9528030B1, “Cobalt inhibitor combination for improved dishing” (Cabot Microelectronics Corporation, priority 2015, dated 2016).
Like-named read-outs stand apart in the source and are kept apart here.

Settings: n-octanol-water

O=C(O)Cc1nnn[nH]1 [1H-Tetrazole-5-acetic acid]
Azole Compound logP: −1.54

Nc1n[nH]c(C(=O)O)n1 [3-Amino-1,2,4-triazole-5-carboxylic acid]
Azole Compound logP: −1.51

Nc1nnn[nH]1 [5-Aminotetrazole]
Azole Compound logP: −0.92

c1ccc2[nH]nnc2c1 [BTA, benzotriazole]
Azole Compound logP: +1.44
Azole Compound logP (listed as benzotriazole): 1.44
